One series has as its target T1, P-Selectin/PSGL (Homo sapiens, UniProt P16109).
T1 construct: purchased R&D Systems (Minneapolis, Minn.)
Put plainly: U937 monocyte binding to P-selectin (cell binding assay). As to conditions: Table 2; U937 binding to P-selectin-Fc. How it is done:
(§1) Cell Binding Assays. The effect of SAGEs on binding of U937 monocytes to P-selectin or RAGE was studied in high-bind micro plates coated with 8 μg/ml protein A ([…]) in 0.2 M carbonate-bicarbonate buffer (pH 9.4). Plates were washed with phosphate buffered saline containing 1% BSA (PBS-BSA), and P-selectin-Fc or RAGE-Fc chimera (50 μL containing 1 μg) was added to each well and incubated for 2 h at room temperature or overnight at 4° C., respectively. Following incubation, wells were washed twice with PBS-BSA. […] As a negative control, 50 μL of 10 mM EDTA was added to select wells to prevent cell binding through sequestration of calcium. At the end of the incubation period, 50 μL of U937 cells (10^5 cells/well, calcein-labeled according to manufacturer's instructions) were added to each well and plates were incubated an additional 30 min at room temperature. The wells were then washed thrice with PBS, and bound cells were lysed by addition of 100 μL of Tris-TritonX-100 containing buffer. Fluorescence was measured on a microplate reader using excitation of 494 nm and emission of 517 nm.

For another series, the target named is T2, RAGE/Mac-1 (Homo sapiens, UniProt Q15109).
T2 construct: purchased R&D Systems (Minneapolis, Minn.)
T2 sequence (Q15109 with tags, fused parts or gaps limits assumed): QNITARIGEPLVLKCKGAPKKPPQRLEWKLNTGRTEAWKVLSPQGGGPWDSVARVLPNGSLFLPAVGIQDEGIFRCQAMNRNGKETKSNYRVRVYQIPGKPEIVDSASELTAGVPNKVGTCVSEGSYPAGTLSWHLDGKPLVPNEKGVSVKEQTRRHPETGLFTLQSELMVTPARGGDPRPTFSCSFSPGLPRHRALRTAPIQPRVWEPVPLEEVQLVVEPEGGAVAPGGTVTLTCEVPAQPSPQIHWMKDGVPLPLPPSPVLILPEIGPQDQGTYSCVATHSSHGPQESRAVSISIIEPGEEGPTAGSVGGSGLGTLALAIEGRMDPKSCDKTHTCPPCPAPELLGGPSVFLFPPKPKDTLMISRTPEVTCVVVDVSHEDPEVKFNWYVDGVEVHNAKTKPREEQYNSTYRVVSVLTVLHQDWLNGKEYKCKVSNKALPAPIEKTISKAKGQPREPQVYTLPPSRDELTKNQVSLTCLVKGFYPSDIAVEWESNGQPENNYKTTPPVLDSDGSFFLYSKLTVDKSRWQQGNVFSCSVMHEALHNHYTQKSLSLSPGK
The series is described as follows: U937 monocyte binding to RAGE (cell binding assay). As to conditions: Table 2; U937 binding to RAGE-Fc. How it is done: as §1

The target of another series is T3, RAGE/CML-BSA (Homo sapiens, UniProt Q15109).
T3 construct: purchased R&D Systems (Minneapolis, Minn.)
T3 sequence (Q15109 with tags, fused parts or gaps limits assumed): as above
Put plainly: Solid phase binding assay, RAGE to CML-BSA. As to conditions: Table 2. How it is done: (§2) Solid phase binding assays. Solid phase binding assays were used to study the ability of SAGEs to inhibit RAGE binding to its ligands. For studies of the effect of SAGEs on RAGE binding to its ligands, polyvinyl 96-well plates were coated with 5 μg/well of specific ligand (CML-BSA, HMGB-I or S100b calgranulin). Plates were incubated overnight at 4° C. and washed thrice with PBS-0.05% Tween-20 (PBST). Separately, RAGE-Fc chimera (100 μL containing 0.5 μg/ml in PBST-0.1% BSA) was incubated with an equal volume of serially diluted SAGEs (0.001 to 1,000 μg/ml in PBST-BSA) overnight at 4° C. The following day, 50 μL of RAGE-SAGE mix was transferred to each respective ligand-coated well and incubated at 37° C. for 2 h. Wells were then washed four times with PBST. To detect bound RAGE, 50 μL of anti-RAGE antibody (0.5 μg/ml) was added to each well, the mixture was incubated for 1 h at room temperature, and wells were washed again four times with PBST. Horse-radish peroxidase conjugated secondary antibody (1:10,000 antibody dilution in PBST; 50 μL per well) was added, wells were incubated for 1 h at room temperature, and then washed once with PBST. A colorimetric reaction was initiated by addition of 50 μL of tetramethyl benzidine chromogen (TMB single solution chromogen) and terminated after 15 min by addition of 50 μL of 1 N HCl. Absorbance at 450 nm was read using an automated microplate reader.

Another series addresses T4, RAGE/S100B (Homo sapiens, UniProt Q15109).
T4 construct: purchased R&D Systems (Minneapolis, Minn.)
The series is described as follows: Solid phase binding assay, RAGE to S100b calgranulin. As to conditions: Table 2. How it is done: as §2

The target in the next series is T5, human leukocyte elastase (Homo sapiens, UniProt P08246).
T5 sequence (P08246 30-267): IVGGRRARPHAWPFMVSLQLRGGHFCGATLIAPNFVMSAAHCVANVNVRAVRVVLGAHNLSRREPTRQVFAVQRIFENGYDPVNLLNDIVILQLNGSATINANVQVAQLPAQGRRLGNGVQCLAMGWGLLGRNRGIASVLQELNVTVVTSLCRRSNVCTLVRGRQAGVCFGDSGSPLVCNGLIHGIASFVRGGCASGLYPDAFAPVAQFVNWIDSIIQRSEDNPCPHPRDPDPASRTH
Put plainly: Human leukocyte elastase activity assay, chromogenic substrate. Format: biochemical. As to conditions: for Leukocyte Elastase: Table 2. The text has this:
Enzymatic assays. […] Nat Biotech 26:669-675, 2008).

The target of series [1] is T6, Hageman factor (Factor XII) (Homo sapiens, UniProt P00748).
T6 sequence (P00748 20-615): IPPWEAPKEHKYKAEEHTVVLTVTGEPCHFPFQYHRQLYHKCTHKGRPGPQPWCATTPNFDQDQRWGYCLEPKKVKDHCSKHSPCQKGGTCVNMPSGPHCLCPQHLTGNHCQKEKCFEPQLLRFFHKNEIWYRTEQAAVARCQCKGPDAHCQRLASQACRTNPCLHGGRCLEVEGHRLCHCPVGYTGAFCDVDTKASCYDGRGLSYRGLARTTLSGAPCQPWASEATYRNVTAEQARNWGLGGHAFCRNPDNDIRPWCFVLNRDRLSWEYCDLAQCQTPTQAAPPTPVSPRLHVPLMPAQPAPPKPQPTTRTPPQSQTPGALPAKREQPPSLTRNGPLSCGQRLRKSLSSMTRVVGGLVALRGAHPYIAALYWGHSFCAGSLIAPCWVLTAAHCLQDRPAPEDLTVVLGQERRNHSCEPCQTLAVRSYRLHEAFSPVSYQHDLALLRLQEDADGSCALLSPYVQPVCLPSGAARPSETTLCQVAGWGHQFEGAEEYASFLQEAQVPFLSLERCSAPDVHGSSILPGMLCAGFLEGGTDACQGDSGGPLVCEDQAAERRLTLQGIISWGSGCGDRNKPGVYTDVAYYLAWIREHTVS
Method: Enzymatic assays. […] Pooled human plasma (5 μl) was incubated with 100 μl of SAHA (0.1 to 1000 μg/ml) in 0.05 M HEPES containing Triton X-100 for 5 min at 5° C.
SAGEs were screened for their ability to stimulate intrinsic coagulation (activation of Hageman factor). Pooled human plasma was incubated with heparin or low molecular weight (Lmw) sulfated and fluoroalkylated HAs (Lmw-OSFHA-1, Lmw-OSFHA-2) and amidolytic activity was determined using the substrate D-cyclohydrotyrosyl-Gly-Arg-p-NA.

In a further series the target is T7, RAGE/HMGB1 (Homo sapiens, UniProt Q15109).
T7 construct: purchased R&D Systems (Minneapolis, Minn.)
T7 sequence (Q15109 with tags, fused parts or gaps limits assumed): as the sequence (Q15109 with tags, fused parts or gaps limits assumed) above
The series is described as follows: Solid phase binding assay, RAGE to HMGB-1 (amphoterin). As to conditions: Table 2. How it is done:
as §2

Series [2] relates to human neonatal epidermal keratinocytes. Put plainly: Keratinocyte proliferation assay. In kind it is cell-based. As to conditions: high molecular weight derivatives, 100 μg/ml, FIG. 8. How it is done:
Fourth, SAGEs are potent inhibitors of the proliferation of human keratinocytes. In these assays human neonatal epidermal keratinocytes were cultured in the presence and absence of SAGEs or other inhibitors, and proliferation was measured by adding a dye that is reduced in direct proportion to the number of viable cells present.

The next series deals with nHEK cells. The series is described as follows: Cytotoxicity (MTS). Format: cell-based, human. As to conditions: up to 10 mg/ml.
For the next series, the system named is LL-37 injected skin. The series is described as follows: SAGE topical treatment LL-37 rosacea model. Format: in vivo, Balb/c mice. As to conditions: topical administration. How it is done: SAGE topical treatment rosacea model. Balb/c mice were shaved […] area of skin on the back. We then began topical application of a hyaluronan-cased emollient containing 5% SAGEs (active emollient) or hyaluronic acid based emollient alone to this area of skin every 12 hours. Twenty-four hours later, we injected 40 μL of vehicle (PBS) or cationic peptide (at 320 μM concentration) subcutaneously into the shaved skin in the manner described previously. Injections and topical emollient applications were repeated every 12 h thereafter. Forty-eight hours after the initial injection (four injections in total), animals were lightly anesthetized as described previously. […] The intensity of erythema was assessed as a redness score (from 1 to 5), and the area of erythema was measured with calipers. […]
Myeloperoxidase (MPO) assay. […] Tissue MPO activity was measured using a method by Suzuki et. al. (Suzuki K, Ota H, Sasagawa S, Sakatani T, Fujikura T. Assay method for myeloperoxidase in human polymorphonuclear leukocytes. Anal Biochem 132:345-352, 1983) as modified by Young et. al. (Young J M, Spires D A, Bedord C J, Wagner B, Ballaron S J, De oung L M. The mouse ear inflammatory response to typical arachidonic acid. J Invest Dermatol 82:367-371, 1984). […] The homogenate was transferred quantitatively to a microcentrifuge tube with an additional 0.75 mL HTAB in PBS. […]

T1 sequence (P16109 with tags, fused parts or gaps limits assumed): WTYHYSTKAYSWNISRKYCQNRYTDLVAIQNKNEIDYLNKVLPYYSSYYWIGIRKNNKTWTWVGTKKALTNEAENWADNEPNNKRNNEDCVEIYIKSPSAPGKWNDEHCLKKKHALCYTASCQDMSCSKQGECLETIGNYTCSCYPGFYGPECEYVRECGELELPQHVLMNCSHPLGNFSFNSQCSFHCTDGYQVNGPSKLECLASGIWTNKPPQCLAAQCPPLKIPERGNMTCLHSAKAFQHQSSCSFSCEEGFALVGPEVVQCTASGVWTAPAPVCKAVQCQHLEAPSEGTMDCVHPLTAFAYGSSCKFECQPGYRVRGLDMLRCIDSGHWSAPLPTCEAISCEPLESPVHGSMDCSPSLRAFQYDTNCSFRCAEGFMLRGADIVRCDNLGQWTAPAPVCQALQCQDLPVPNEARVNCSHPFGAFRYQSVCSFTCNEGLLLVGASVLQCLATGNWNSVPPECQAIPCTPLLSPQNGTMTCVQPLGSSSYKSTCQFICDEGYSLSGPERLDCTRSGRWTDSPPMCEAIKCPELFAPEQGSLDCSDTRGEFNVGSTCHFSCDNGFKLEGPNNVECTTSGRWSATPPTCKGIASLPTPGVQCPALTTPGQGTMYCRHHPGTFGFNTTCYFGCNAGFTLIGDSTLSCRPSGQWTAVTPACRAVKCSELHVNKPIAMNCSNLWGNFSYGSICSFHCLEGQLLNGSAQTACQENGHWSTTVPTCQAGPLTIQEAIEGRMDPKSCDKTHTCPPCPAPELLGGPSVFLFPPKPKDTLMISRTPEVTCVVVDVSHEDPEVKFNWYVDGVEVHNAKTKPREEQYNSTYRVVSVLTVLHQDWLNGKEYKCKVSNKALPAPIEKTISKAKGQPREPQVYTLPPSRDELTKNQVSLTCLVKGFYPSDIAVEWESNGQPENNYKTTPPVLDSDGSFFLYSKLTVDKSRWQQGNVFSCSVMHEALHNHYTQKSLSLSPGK
T4 sequence (Q15109 with tags, fused parts or gaps limits assumed): as the sequence (Q15109 with tags, fused parts or gaps limits assumed) above

The substance P—OSFHA-1(DS 2) [GM-231201] came in with a P-Selectin/PSGL on P-Selectin/PSGL of 0.126 µg/mL. In addition, the RAGE/Mac-1 at RAGE/Mac-1 stood at 28.4 µg/mL. On RAGE/CML-BSA, this substance returned an RAGE/CML-BSA of 2.579 µg/mL. In addition, the RAGE/S100B at RAGE/S100B was determined as 8.82 µg/mL. In addition, on human leukocyte elastase, the “Leukocyte Elastase” value is 0.487 µg/mL. Moreover, the “Hageman Factor” value in series [1] was determined as 400 µg/mL.
The substance P—OSMeHA(DS 1) [GM-131101] came in with a P-Selectin/PSGL at P-Selectin/PSGL of 5.61 µg/mL. The substance also had an RAGE/Mac-1 at RAGE/Mac-1 of 0.51 µg/mL. For the same substance, the RAGE/CML-BSA at RAGE/CML-BSA was 6.09 µg/mL. The same substance yielded an RAGE/S100B on RAGE/S100B of 31.069 µg/mL. This substance also returned an RAGE/HMGB1 at RAGE/HMGB1 of 2.68 µg/mL. Also, the 50% inhibitory concentration (IC50) at human leukocyte elastase (FIG. 4, read-out: IC50 for HLE) is 3.46 nM. Moreover, the “Leukocyte Elastase” value on human leukocyte elastase came to 0.285 µg/mL. The “inhibition of keratinocyte proliferation” value in series [2] is listed as “less active”. The “toxicity to nHEK cells” value in the series with nHEK cells is on record as “non-toxic”.
P—OSMeHA(DS 2) [GM-131201] yielded a P-Selectin/PSGL on P-Selectin/PSGL of 0.5 µg/mL. On RAGE/Mac-1, the RAGE/Mac-1 is 0.3 µg/mL. At RAGE/CML-BSA, the RAGE/CML-BSA is 0.044 µg/mL. For the same substance, on RAGE/S100B, the RAGE/S100B is 0.06 µg/mL. Moreover, on human leukocyte elastase, the “Leukocyte Elastase” value worked out at 0.42 µg/mL. Besides, the “Hageman Factor” value in [1] amounted to 0.4 µg/mL.
P—OSFHA-1(DS 1) [GM-231101]: the P-Selectin/PSGL on P-Selectin/PSGL amounted to 12.048 µg/mL. The substance also displayed an RAGE/S100B on RAGE/S100B of 14.6 µg/mL. In addition, the “Leukocyte Elastase” value at human leukocyte elastase came out at 0.185 µg/mL. Besides, the “Hageman Factor” value in series [1] is 400 µg/mL.
P—OSFHA-2(DS 2) [GM-331201] came in with an RAGE/CML-BSA at RAGE/CML-BSA of 1.682 µg/mL. The substance also yielded an RAGE/S100B on RAGE/S100B of 2.28 µg/mL. At human leukocyte elastase, the “Leukocyte Elastase” value is 0.353 µg/mL. In addition, the “Hageman Factor” value in series [1] stood at 40 µg/mL.
As for P—OSFHA-2(DS 1) [GM-331101], the P-Selectin/PSGL at P-Selectin/PSGL was 8.958 µg/mL. Moreover, the RAGE/S100B on RAGE/S100B came to 4.557 µg/mL. The “Leukocyte Elastase” value on human leukocyte elastase is 0.375 µg/mL. Also, in series [1], the “Hageman Factor” value is 400 µg/mL.
With “Hyaluronic Acid [HA, reference compound]”, the “inflammation and MPO activities, SAGE vs. HA” value in the series on LL-37 injected skin was “did not alleviate inflammation”.

Broadly, the IC50 is the concentration needed to halve the response being measured.

These data come from patent US8399430B2, “Alkylated semi synthetic glycosaminoglycosan ethers, and methods for making and using thereof” (University of Utah Research Foundation, priority 2008, dated 2013).
